Laboratory results published in patent publication US11597911B2, “Expansion of populations of T cells by the use of modified serum free media” (Life Technologies Corporation, priority 2017, dated 2023).

Tests used:
[1] = tested on: Naïve and Central Memory CD4+ T cells; experiment: Expansion and cytokine production of sorted CD4+ T cell subsets in limited glucose:galactose media; type: cell-based, human; details: in the presence of low glucose; FIG. 21
Text: Bulk CD4+ T cells were sorted into Tregs, Naïve, Tcm (central memory), and Tem (effector memory) subsets based on the markers CD25, CD45RA, CD62L, and CCR7. Based on FIG. 20, T cells of different subpopulations may be sorted through use of FACS. […] Expanded naïve CD4+ T cells preserve the naïve phenotype when grown in limited glucose, as witnessed through FACS analysis (see FIG. 22 and FIG. 23).
While good expansion of T cells can be achieved in media containing multiple ratios of glucose and galactose, ratios with limiting glucose can have a negative impact in interferon gamma production. There is evidence that interferon-gamma expression is regulated via GAPDH in T-cells (Chang, et al Cell. 2013 June 6; 153(6): 1239-1251) thus excessively limiting glycolysis during T cell expansion can impair IFN-γ production. […] Central memory T cells appear not to be effected by glucose level. […] Primary human CD4+ T cells from normal donors isolated via negative selection were obtained from UPenn Human Immunology Core Facility. Cells were separated by flow cytometric sorting into Naïve (CD45RA+/CD27+/CCR7+), and Central Memory (CD45RA−/CD27+/CCR7+), subsets. […] T cells were fed and counted on days 5, 7, 10 and 12 on a Beckman-Coulter Multisizer 3. […]

[2] = tested on: Primary human T cells; experiment: T cell expansion in serum-free medium with glucose, galactose or mixtures; type: cell-based; details: final sugar 6 g/L; lipid concentrate 1:100; CD3/CD28 beads; counted days 5-12; FIG. 3
Text: FIG. 3 is a graph depicting that galactose alone is suboptimal for human T cell expansion. Primary human T cells from normal donors were negatively isolated from PBMCs with DYNABEADS® UNTOUCHED™ Human T Cells kit. T cells (seeding density 1×10^6/mL) were activated with DYNABEADS® Human T-Expander CD3/CD28 at a ratio of 3 beads per T cell and cultured in serum-free medium supplemented with GIBCO™ Chemically Defined Lipid Concentrate (1:100) and either d-glucose, d-galactose or mixtures of glucose and galactose as indicated; final concentration of sugar was 6 g/L in all conditions. T cells were fed and counted on days 5, 7, 10 and 12 on a Beckman-Coulter ViCell analyzer. Cell expansion is expressed as cumulative viable T cells over time. Results are representative of at least 3 independent experiments.
Primary human T cells from normal donors were negatively isolated from PBMCs with DYNABEADS® UNTOUCHED™ Human T Cells kit. […] T cells were fed and counted on days 5, 7, 10 and 12 on a Beckman-Coulter ViCell analyzer. Cell expansion is expressed as cumulative viable T cells over time. […]

Compound: O=C[C@H](O)[C@@H](O)[C@@H](O)[C@H](O)CO [D-galactose]
- expansion of naïve T cells [1]: high rate of expansion
- in vitro T cell expansion (cumulative viable T cells over time) [2]: not sufficient to support optimal in vitro T cell expansion
